In patent US20190336579A1, “COMPOSITIONS AND METHODS TO INDUCE TARGETED APOPTOSIS BY MODULATING PROTEIN TYROSINE PHOSPHATASE 13 (PTPN13)” (National Jewish Health, priority 2010, published 2019):

Key:
Fas phospho-Y291 = test: Western blot of Fas tyrosine 291 phosphorylation in MRC5 lung fibroblasts; assay type: cell-based, human; conditions: pervanadate 150 μM, time dependent
Protocol: PTPN13 has been shown in astrocytoma cells to dephosphorylate Fas at tyrosine 291. Little is known about the regulatory function of tyrosine phosphorylation of Fas. In another exemplary embodiment, to assess the effect of TNF-α and IFN-γ sensitization on the levels of Fas tyrosine phosphorylation, MRC5 lung fibroblasts were treated with TNF-α and IFN-γ for increasing amounts of time. Because TNF-α is known to increase tyrosine phosphorylation of many proteins, such as MAP kinases and AKT, within minutes following stimulation, the kinetics of TNF-α and IFN-γ induced tyrosine phosphorylation of Fas were assessed. MRC5 lung fibroblasts were treated with TNF-α (10 ng/ml) and IFN-γ (50 U/ml) for up to 48 hours. The cells were lysed and analyzed by western blot for phosphorylated Fas, using a phospho-specific antibody for Fas phosho-Y291. TNF-α and IFN-γ increased tyrosine phosphorylation of Fas at tyrosine residue 291 beginning at 18 hours. […] The pervanadate treated MRC5 cells were lysed and analyzed the tyrosine phosphorylation of Fas by western blotting. […] We then detected phosphorylated Fas by Western blot, using a phospho-specific antibody for Fas tyrosine residue 291. […]
FIG. 5: Inhibition of tyrosine phosphatase activity sensitizes lung fibroblasts to Fas-induced apoptosis. […] Caspase-8 activation was measured by a fluorescence based assay. […]

caspase-8 = test: Caspase-8 activation (Fas-induced apoptosis) in lung fibroblasts; assay type: cell-based, human; conditions: MRC5
Protocol: To assess the effects of these cytokines on PTPN13 expression, non-diseased normal human lung fibroblasts (NHLF), fibrotic human lung fibroblasts (FHLF) and a fetal lung fibroblast cell line, MRC5 cells, were treated with TNF-α (10/ng/ml), IFN-γ (50 U/ml) or with both cytokines for 6 hours. PTPN13 expression was measured by quantitative PCR (FIG. 2A). The primary lung fibroblasts from normal and fibrotic lung had equivalent levels of PTPN13 expression to the MRC5 lung fibroblast cell line. […] Treatment with TNF-α alone caused a 40% decrease in PTPN13 expression. Combined exposure to TNF-α and IFN-γ decreased PTPN13 mRNA expression by 80%. Protein lysates from normal, fibrotic and MRC5 fibroblasts treated for 36 hours with TNF-α (10/ng/ml), IFN-γ (50 U/ml) or with both cytokines were then analyzed for PTPN13 expression. […]
In one exemplary method, to assess whether PTPN13 expression prevents Fas-induced apoptosis, PTPN13 expression was knocked-down using siRNA. […] Apoptosis was assayed by quantifying activation of caspase-3 and caspase-8 (FIG. 3C).
In death-receptor mediated apoptosis, formation of the DISC (Death-Inducing Signaling Complex) is essential for the initiation of apoptosis. […] The cells were lysed, immunoprecipitated with anti-Fas antibody, and co-immunoprecipitated FADD and caspase-8 were detected by immunoblotting. […]

pervanadate was tested, and the “tyrosine phosphorylation of Fas” value (Fas phospho-Y291) was “increased”, the “increase in caspase-8 activity over unstimulated cells” value (caspase-8; 150 μM pervanadate 2 hour pre-treatment, then Fas-activating antibody 250 ng/ml) was 6 fold and the “increase in caspase-8 activity above untreated cells” value (caspase-8; 150 μM pervanadate alone) was 2 fold.
